Source: patent publication US10981932B2, “Macrocyclic indole derivatives” (Bayer Aktiengesellschaft, priority 2016, dated 2021)
pIC50: −log10 of the molar value. Where “and” joins values, the source holds several entries; their conditions need not be identical. Equal entries are not always repeated. Where two headings read alike, the source gives them in different places.

Assays:
A2780 = assay: Anti-proliferative effect (CellTiter-Glo, 72 h), A2780; assay type: cell-based; details: A2780 cells, median, read-out: IC50 antiproliferation assay A2780 [M] (median)
How it was run: (§1)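 Cells plated and incubated with compounds for 72 h at 37 °C, with a parallel day 0 reference plate for time-zero signal. Viability read by CellTiter-Glo luminescence after 10 min, measured identically on the day 0 and 72 h plates.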

MCL-1 = MCL-1 (Homo sapiens, UniProt Q07820); assay: Protein-protein interaction assay MCL-1/Noxa BH3 peptide (MCL-1 assay), TR-FRET; assay type: binding; details: MBP-MCL-1 / Noxa BH3-derived peptide, median
Sequence of MCL-1 (Q07820 whole entry): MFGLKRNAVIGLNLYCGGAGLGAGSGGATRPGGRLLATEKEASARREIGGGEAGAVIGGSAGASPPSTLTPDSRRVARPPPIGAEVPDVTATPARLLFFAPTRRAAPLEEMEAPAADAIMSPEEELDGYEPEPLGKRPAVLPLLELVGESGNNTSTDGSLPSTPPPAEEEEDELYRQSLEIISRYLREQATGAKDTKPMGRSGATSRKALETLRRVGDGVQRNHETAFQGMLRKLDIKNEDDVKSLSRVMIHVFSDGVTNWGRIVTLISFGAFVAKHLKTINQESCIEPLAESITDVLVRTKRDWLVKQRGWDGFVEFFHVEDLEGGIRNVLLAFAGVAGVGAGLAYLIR
How it was run: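 IC50 came from a 4-parameter fit of the normalized 665/620 nm TR-FRET ratio (anti-MBP Eu-cryptate/streptavidin-XL665). Compounds (0.1 nM–20 μM, duplicates) were preincubated 10 min at 22 °C with 1 nM MBP-MCL-1 in pH 7 Tris/NaCl/KF buffer, then read after 1 h at 22 °C plus overnight at 4 °C.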

SUDHL10 [1] = assay: Anti-proliferative effect (CellTiter-Glo, 72 h), SUDHL10; assay type: cell-based; details: SUDHL10 cells, antiproliferation, 72 h incubation, median, read-out: Antiproli SUDHL10 [M] (median)
How it was run: as §1

SUDHL5 [2] = test system: SUDHL5
Description: Therefore, cytotoxicity assays were run in parallel in SUDHL5 and SUDHL10 cells.
The different cell lines were plated in culture medium (RPMI 1640 [GIBCO #22400-089]supplemented with 10% Fetal Bovine Serum) at a density of 3.300 cells in 30 μl/well in a sterile, solid black, flat bottom, polystyrene, TC-treated 384-well microplate (Corning #3571) using Multidrop Combi Reagent Dispenser. As a control, medium without cells was also added to the plate. Cells were incubated in a humidified incubator at 37° C. overnight. On the next day, the cells were treated with compounds (stock solution, 10 mM in DMSO) using the HP D300 Digital Dispenser in a concentration range of 3.3×10e-5 M (33 μM) to 5×10e-9 M (5 nM) in a single-dot curve with at least 16 dilutions and a DMSO concentration of 0.33%. Rim wells were excluded. The cells were incubated for 5 h hours in a humidified incubator at 37° C. After this incubation, 30 μl of CellTiter-Glo@ Luminescent Cell Viability reagent (Promega, G7573) was added to each well using the Multidrop Combi Reagent Dispenser, followed by 15 min incubation on a shaker at room temperature. Finally, luminescence was read at 0.1 ms, with a gain of 3000 using the PHERAstar FS microplate reader (BMG Labtech).
The Bella DRC Master Sheet was used to calculate IC50s, with fixed CI=0 and C0=1.

SUDHL10 [3] = test system: SUDHL10
SUDHL5 [4] = assay: Induction of caspase-3/7 activity (Caspase-Glo 3/7), SUDHL5; assay type: cell-based; details: caspase-3/7 induction, SUDHL5 cells, 3 h treatment; median
How it was run: (§2)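 DLBCL lines SUDHL5 and SUDHL10 treated with compounds for 3 h at 37 °C; caspase-3/7 activity read by Caspase-Glo 3/7 luminescence. Medium-only background subtracted; EC50 fitted with bottom fixed at 1 and top fixed at the reference compound's maximal induction.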

SUDHL5 [5] = assay: Anti-proliferative effect (CellTiter-Glo, 72 h), SUDHL5; assay type: cell-based; details: SUDHL5 cells, antiproliferation, median, read-out: Antiproli SUDHL5 [M] (median)
How it was run: as §1

SUDHL10 [6] = assay: Induction of caspase-3/7 activity (Caspase-Glo 3/7), SUDHL10; assay type: cell-based; details: caspase-3/7 induction, SUDHL10 cells, 3 h treatment; median
How it was run: as §2

OPM2 = assay: Anti-proliferative effect (CellTiter-Glo, 72 h), OPM2; assay type: cell-based; details: OPM2 cells, median, read-out: IC50 antiproliferation assay OPM2 [M] (median)
How it was run: as §1

[7] = 11-membered ring
MV-4-11 = assay: Anti-proliferative effect (CellTiter-Glo, 72 h), MV-4-11; assay type: cell-based; details: MV-4-11 cells, median, read-out: IC50 antiproliferation assay MV-4-11 [M] (median)
How it was run: as §1

Molecule | IC50 (A2780) [M] | IC50 (MCL-1) [µM] | IC50 (SUDHL10 [1]) [M] | pIC50 (SUDHL5 [2]) | pIC50 (SUDHL10 [3]) | EC50 (SUDHL5 [4]) [µM] | IC50 (SUDHL5 [5]; 72 h incubation) [M] | EC50 (SUDHL10 [6]) | IC50 (MV-4-11) [M] | IC50 (SUDHL5 [5]; 72 h) [M] | IC50 (OPM2) [M] | ring closure, isolated yield ([7]; the molecule shown is the open-chain precursor, crosslinker bond, (2Z)-1,4-dichlorobut-2-ene/NaH, DMF, 65.6 mM) [%] | ring closure, isolated yield ([7]; the molecule shown is the open-chain precursor, crosslinker bond, (2Z)-1,4-dichlorobut-2-ene/NaH, DMF, 65.7 mM) [%] | ring closure, isolated yield ([7]; rcm bond, Grubbs II (10 mol%), DCM, 77.0 mM) [%] | ring closure, isolated yield ([7]; the molecule shown is the open-chain precursor, crosslinker bond, (2Z)-1,4-dichlorobut-2-ene/NaH, DMF, 65.1 mM) [%] | ring closure, isolated yield ([7]; rcm bond, Grubbs II (10 mol%), DCM, 77.8 mM) [%]
CN1CCCn2c(C(=O)O)c(CCCOc3cccc4ccccc34)c3cccc(c32)-c2c(CCN3CCOCC3)nn(C)c2C1 (single isomer, unassigned; enantiomer 2) [Example 126, 7,9-dimethyl-11-[2-(morpholin-4-yl)ethyl]-1-[3-(naphthalen-1-yloxy)propyl]-4,5,6,7,8,9-hexahydropyrazolo[3′,4′:7,8][1,5]diazecino[9,10,1-hi]indole-2-carboxylic Acid (Enantiomer 2)] | 3.19e-05 | 0.0845 | 1.51e-05 | 4.56 | < 4.48 | 27.9 | 1.68e-05 | > 33 µM |  |  | > 3.3e-05 |  |  |  |  | 
Cn1nc(CN2CCOCC2)c2c1COCCCCn1c(C(=O)O)c(CCCOc3cccc4ccccc34)c3cccc-2c31 (single isomer, unassigned; enantiomer 1) [Example 136, 1-methyl-3-(morpholin-4-ylmethyl)-7-[3-(naphthalen-1-yloxy)propyl]-1,10,11,12,13,15-hexahydropyrazolo[4′,3′:9,10][1,6]oxazacycloundecino[8,7,6-hi]indole-8-carboxylic Acid (Enantiomer 1)] | > 3.3e-05 | 0.0228 | 8.9e-06 | < 4.48 | < 4.48 | > 33 |  | > 33 µM |  |  | > 3.3e-05 |  |  |  |  | 
Cn1nc(CN2CCOCC2)c2c1COCCCn1c(C(=O)O)c(CCCOc3cccc4ccccc34)c3cccc-2c31 (single isomer, unassigned; enantiomer 1) [Example 139, 9-methyl-11-(morpholin-4-ylmethyl)-1-[3-(naphthalen-1-yloxy)propyl]-5,6,8,9-tetrahydro-4H-pyrazolo[4′,3′:8,9][1,5]oxazecino[7,6,5-hi]indole-2-carboxylic Acid (Enantiomer 1)] | > 3.3e-05 | 0.0422 | 2.67e-05 | < 4.48 | < 4.48 | > 33 |  | > 33 µM |  |  | > 3.3e-05 |  |  |  |  | 
CCOC(=O)c1[nH]c2c(-c3c(CO)nn(C)c3CC)cccc2c1CCCO[Si](C)(C)C(C)(C)C |  |  |  |  |  |  |  |  |  |  |  | 75.3 |  |  |  | 
CN1CCCn2c(C(=O)O)c(CCCOc3cccc4ccccc34)c3cccc(c32)-c2c(CCN3CCOCC3)nn(C)c2C1 (single isomer, unassigned; enantiomer 1) [Example 125, 7,9-dimethyl-11-[2-(morpholin-4-yl)ethyl]-1-[3-(naphthalen-1-yloxy)propyl]-4,5,6,7,8,9-hexahydropyrazolo[3′,4′:7,8][1,5]diazecino[9,10,1-hi]indole-2-carboxylic Acid (Enantiomer 1)] | 8.42e-06 | 0.0108 | 7.66e-06 | 5.20 | 4.86 | 6.2 | 2.53e-06 | 14 µM | 2.02e-06 |  | 1.15e-05 |  |  |  |  | 
CCOC(=O)c1[nH]c2c(-c3c(CO)nn(CCN4CCOCC4)c3C)c(C)ccc2c1CCCO[Si](C)(C)C(C)(C)C |  |  |  |  |  |  |  |  |  |  |  |  | 48.3 |  |  | 
(rac)-(E/Z)-ethyl-1,3-dimethyl-7-[3-(naphthalen-1-yloxy)propyl]-1,10,13,15-tetrahydropyrazolo[4′,3′:9,10][1,6]oxazacycloundecino[8,7,6-hi]indole-8-carboxylate |  |  |  |  |  |  |  |  |  |  |  |  |  | 57 |  | 
CCOC(=O)c1[nH]c2c(-c3c(CC)nn(C)c3CO)c(C)ccc2c1CCCO[Si](C)(C)C(C)(C)C |  |  |  |  |  |  |  |  |  |  |  |  |  |  | 68.9 | 
(rac)-(E/Z)-ethyl-2,3-dimethyl-7-[3-(naphthalen-1-yloxy)propyl]-2,10,13,15-tetrahydropyrazolo[4′,3′:9,10][1,6]oxazacycloundecino[8,7,6-hi]indole-8-carboxylate |  |  |  |  |  |  |  |  |  |  |  |  |  |  |  | 15

The next lines start with results.

IC50 (A2780) [M] | IC50 (MCL-1) [µM] | IC50 (SUDHL10 [1]) [M] | pIC50 (SUDHL5 [2]) | pIC50 (SUDHL10 [3]) | EC50 (SUDHL5 [4]) [µM] | IC50 (SUDHL5 [5]; 72 h incubation) [M] | EC50 (SUDHL10 [6]) | IC50 (MV-4-11) [M] | IC50 (SUDHL5 [5]; 72 h) [M] | Molecule | IC50 (OPM2) [M] | ring closure, isolated yield ([7]; the molecule shown is the open-chain precursor, crosslinker bond, (2Z)-1,4-dichlorobut-2-ene/NaH, DMF, 65.6 mM) [%] | ring closure, isolated yield ([7]; the molecule shown is the open-chain precursor, crosslinker bond, (2Z)-1,4-dichlorobut-2-ene/NaH, DMF, 65.7 mM) [%] | ring closure, isolated yield ([7]; rcm bond, Grubbs II (10 mol%), DCM, 77.0 mM) [%] | ring closure, isolated yield ([7]; the molecule shown is the open-chain precursor, crosslinker bond, (2Z)-1,4-dichlorobut-2-ene/NaH, DMF, 65.1 mM) [%] | ring closure, isolated yield ([7]; rcm bond, Grubbs II (10 mol%), DCM, 77.8 mM) [%]
2.59e-06 | 0.258 | 2.74e-06 | < 4.48 | < 4.48 | > 33 | 1.52e-06 | > 33 µM |  |  | Cc1c2c(nn1CC(F)(F)F)COCCCCn1c(C(=O)O)c(CCCOc3cccc4ccccc34)c3cccc-2c31 [Example 242, 3-methyl-7-[3-(naphthalen-1-yloxy)propyl]-2-(2,2,2-trifluoroethyl)-2,10,11,12,13,15-hexahydropyrazolo[4′,3′:9,10][1,6]oxazacycloundecino[8,7,6-hi]indole-8-carboxylic Acid] |  |  |  |  |  | 
> 3.3e-05 | 0.0114 | 1.79e-05 | 4.78 |  | 14.9 | 1.17e-05 | 20.3 µM and > 33 µM | 2.27e-05 |  | Cn1nc(CN2CCOCC2)c2c1COCCCn1c(C(=O)O)c(CCCOc3cccc4ccccc34)c3cccc-2c31 (single isomer, unassigned; enantiomer 2) [Example 140, 9-methyl-11-(morpholin-4-ylmethy)-1-[3-(naphthalen-1-yloxy)propyl]-5,6,8,9-tetrahydro-4H-pyrazolo[4′,3′:8,9][1,5]oxazecino[7,6,5-hi]indole-2-carboxylic Acid (Enantiomer 2)] | > 3.3e-05 |  |  |  |  | 
1.05e-05 | 0.0999 |  | 4.51 | 4.57 | > 33 |  | > 33 µM | 2e-05 | 7.48e-06 | CCc1nn(C)c2c1-c1cccc3c(CCCOc4cccc5cc(C(F)(F)F)ccc45)c(C(=O)O)n(c13)CCCCOC2 (racemic) [Example 313, (rac)-12-ethyl-10-methyl-1-(3-((6-(trifluoromethyl)naphthalen-1-yl)oxy)propyl)-4,5,6,7,9,10-hexahydropyrazolo[4′,3′:9,10][1,6]oxaazacycloundecino[8,7,6-hi]indole-2-carboxylic Acid] |  |  |  |  |  | 
1.39e-05 | 0.00163 | 6.99e-06 | 5.73 | 5.59 | 1.45 | 2.48e-06 | 2.78 µM | 4.74e-06 |  | CCc1c2c(nn1C)COCCCCn1c(C(=O)O)c(CCCOc3cccc4cc(F)ccc34)c3cccc-2c31 (racemic) [Example 281, (rac)-3-ethyl-7-{3-[(6-fluoronaphthalen-1-yl)oxy]propyl}-2-methyl-2,10,11,12,13,15-hexahydropyrazolo[4′,3′:9,10][1,6]oxazacycloundecino[8,7,6-hi]indole-8-carboxylic Acid] |  |  |  |  |  | 
